Laboratory results reported in patent US9963496B2, “Stable glucagon analogues and use for treatment of hypoglycaemia” (Novo Nordisk A/S, priority 2014, dated 2018).
*1 amine or outer side, *2 acyl side, *3 side chain or, on linkers, in order; H or OH if unused. Where a SMILES comes first, the peptide text is derived from it. Side-chain parts run from the residue outwards. The star is where a group is joined. γGlu = O=C(O)[C@H](CCC(=O)[*:2])N[*:1]; Desaminohistidyl = O=C(CCc1c[nH]cn1)*

What was measured:
human glucagon receptor [1] = molecular target: T1, human glucagon receptor (Homo sapiens, UniProt P47871); assay: Assay (II)(b): glucagon receptor binding, 125I-glucagon displacement on isolated membranes (SPA); details: displacement of 125I-glucagon, membranes of BHK cells with human glucagon receptor, 2 h at 25° C.; read-out: IC50 hGlucagonR
T1 construct: expressed in transfected cells; host or cells: BHK cells, clone BHK hGCGR A3*25; isolated membranes
Method: (b) Glucagon Receptor Binding
The purpose of this assay was to test the in vitro receptor binding activity of the glucagon derivatives of the invention. The receptor binding activity is a measure of affinity of a derivative for the human glucagon receptor.
The receptor binding of each compound to the human glucagon receptor was measured in a displacement binding assay. In this type of assay a labelled ligand (in this case 125I-glucagon) is bound to the receptor. Each derivative is added in a series of concentrations to isolated membranes containing the human glucagon receptor and displacement of the labelled ligand is monitored. The receptor binding is reported as the concentration at which half of the labelled ligand is displaced from the receptor, the IC50 value.
HME buffer consisted of 25 mM HEPES, 2 mM MgCl2 and 1 mM EDTA, and pH was adjusted to 7.4. Binding buffer consisted of 50 mM HEPES supplemented with 5 mM MgCl2, 1 mM CaCl2, 0.02% Tween 20 and 0.1% Ovalbumin, and pH was adjusted to 7.4.
The cells used in this assay (clone BHK hGCGR A3*25) were BHK cells stable transfected with an expression plasmid containing the cDNA encoding the human glucagon receptor.
The cells were grown at 5% CO2 in DMEM, 10% fetal calf serum, 1% Pen/Strep (Penicillin/Streptomycin) and 1.0 mg/mL of the selection marker G418. To make a membrane preparation the cells were grown to approximately 80% confluence. The cells were washed twice in phosphate-buffered saline and harvested. The cells were pelleted using a brief centrifugation and the cell pellet was kept on ice. The cells were lysed by adding approx. 5 mL HME buffer, mix by pipetting and snap freeze in liquid nitrogen. The cell lysate was quickly thawed and HME buffer added to 10 mL. The cell pellet was homogenised with an ULTRA-THURRAX dispersing instrument for 20-30 seconds. The homogenate was centrifuged at 20,000×G, 4° C. for 10 minutes. The pellet was resuspended (homogenised) in 1-2 mL HME buffer. The protein concentration was determined. The membranes were aliquoted and snap frozen in liquid nitrogen and stored at minus 80° C.
• 1. For the receptor binding assay 50 μl of the assay buffer was added to each well of an assay plate. • 2. Test compounds were serially diluted to give the following concentrations: 8×10 EE-7 M, 8×10 EE-8 M, 8×10 EE-9 M, 8×10 EE-10 M, 8×10 EE-11 M, 8×10 EE-12 M and 8×10 EE-13 M. Twenty-five μl were added to appropriate wells in the assay plate. • 3. Cell membrane aliquots were thawed and diluted to their working concentration. Fifty μl were added to each well in the assay plate. • 4. WGA SPA beads were suspended in assay buffer at 20 mg/mL. The suspension was diluted to 10 mg/mL in assay buffer just prior to addition to the assay plate. Fifty μl were added to each well in the assay plate. • 5. The incubation was started by adding 25 μl of 480 pM solution of [125I]-glucagon to each well of the assay plate. A 25 μl aliquot was reserved for measuring total counts/well. • 6. The assay plate was incubated for 2 h at 25° C. • 7. The assay plate was centrifuged for 10 min at 1500 rpm. • 8. The assay plate was read in a Packard TopCount NXT instrument. Calculations
The data from the TopCount instrument were transferred to GraphPad Prism software. The software averaged the values for the replicates and performed a non-linear regression.

physchem = assay type: physicochemical; details: pH 7.5
Procedure, shortened: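 Peptide at 250 μM in 10 mM HEPES pH 7.5 with 1 μM Thioflavin T, incubated at 37° C with 960 rpm orbital shaking. ThT fluorescence (ex 444/em 485 nm) read every 20 min; lag-time (t0−2τ) and kapp (1/τ) from curve fit. Recovery is post-assay supernatant peptide by RP-HPLC as % of initial.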

human glucagon receptor [2] = molecular target: T1, human glucagon receptor; assay: Assay (I)(b): glucagon receptor activation, CRE luciferase reporter gene assay in BHK cells; assay type: cell-based; details: BHK cells expressing human glucagon receptor and CRE luciferase, 3 h incubation; read-out: EC50 hGlucagonR
Procedure, shortened: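 BHK570 cells stably expressing the human glucagon receptor and CRE-luciferase, 5×10 EE3 cells/well in DMEM with 2% ovalbumin and 0.2% Pluronic F-68. Compounds at final 1×10 EE-6 to 1×10 EE-13 M, 3 h at 37° C. Luminescence read; EC50 by four-parameter fit.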

T1 sequence (P47871 26-477): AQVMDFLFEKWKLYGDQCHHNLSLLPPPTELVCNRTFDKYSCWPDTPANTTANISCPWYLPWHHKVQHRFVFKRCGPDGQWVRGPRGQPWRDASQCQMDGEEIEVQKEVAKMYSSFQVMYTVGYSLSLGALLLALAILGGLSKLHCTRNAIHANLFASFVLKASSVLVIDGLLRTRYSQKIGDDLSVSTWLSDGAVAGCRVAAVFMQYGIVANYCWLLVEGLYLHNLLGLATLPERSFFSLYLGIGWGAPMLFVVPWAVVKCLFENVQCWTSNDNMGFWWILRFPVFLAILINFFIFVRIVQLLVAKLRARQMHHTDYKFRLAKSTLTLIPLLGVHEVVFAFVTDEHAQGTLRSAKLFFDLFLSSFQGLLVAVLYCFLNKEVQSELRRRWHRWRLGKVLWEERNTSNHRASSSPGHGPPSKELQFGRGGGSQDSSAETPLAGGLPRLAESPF

SMILES	IC50 (human glucagon receptor [1]) [nM]	recovery at 250 μM (physchem) [%]	EC50 (human glucagon receptor [2]) [nM]
CC(=O)N[C@@H](CCC(=O)N[C@@H](CCC(=O)N[C@@H](CCC(=O)N[C@@H](CCC(=O)NCCCC[C@H](NC(=O)[C@@H](NC(=O)[C@H](Cc1ccccc1)NC(=O)[C@H](CCC(=O)O)NC(=O)[C@H](CCC(N)=O)NC(=O)[C@H](C)NC(=O)[C@H](CCCNC(=N)N)NC(=O)[C@H](CCCNC(=N)N)NC(=O)[C@H](CO)NC(=O)[C@H](CCC(=O)O)NC(=O)[C@H](CC(C)C)NC(=O)[C@H](Cc1ccc(O)cc1)NC(=O)[C@H](CCCCN)NC(=O)[C@H](CO)NC(=O)[C@H](Cc1ccc(O)cc1)NC(=O)[C@H](CC(=O)O)NC(=O)[C@H](CO)NC(=O)[C@@H](NC(=O)[C@H](Cc1ccccc1)NC(=O)[C@@H](NC(=O)CNC(=O)[C@H](Cc1c[nH]cn1)NC(=O)[C@H](CO)NC(=O)CCc1c[nH]cn1)[C@@H](C)O)[C@@H](C)O)C(C)C)C(=O)N[C@@H](Cc1c[nH]c2ccccc12)C(=O)N[C@@H](CC(C)C)C(=O)N[C@@H](CC(C)C)C(=O)N[C@@H](CO)C(=O)N[C@H](C(=O)O)[C@@H](C)O)C(=O)O)C(=O)O)C(=O)O)C(=O)O [Example 6, N^ϵ24-[(4S)-4-[[(4S)-4-[[(4S)-4-[[(4S)-4-acetamido-4-carboxybutanoyl]amino]-4-carboxybutanoyl]amino]-4-carboxybutanoyl]amino]-4-carboxybutanoyl]-[Imp1, His3, Glu15, Glu21, Lys24, Leu27, Ser28]-Glucagon] (Desaminohistidyl-SHGTFTSDYSKYLESRRAQEFVK([γGlu-γGlu-γGlu-γGlu-Ac])WLLST-OH)	1.8	101	–
CC(=O)N[C@@H](CCC(=O)N[C@@H](CCC(=O)N[C@@H](CCC(=O)N[C@@H](CCC(=O)NCCCC[C@H](NC(=O)[C@@H](NC(=O)[C@H](Cc1ccccc1)NC(=O)[C@H](CC(=O)O)NC(=O)[C@H](CCC(N)=O)NC(=O)[C@H](C)NC(=O)[C@H](CCCNC(=N)N)NC(=O)[C@H](CCCNC(=N)N)NC(=O)[C@H](CC(C)C)NC(=O)[C@H](CC(=O)O)NC(=O)[C@H](CC(C)C)NC(=O)[C@H](Cc1ccc(O)cc1)NC(=O)[C@H](CCCCN)NC(=O)[C@H](CO)NC(=O)[C@H](Cc1ccc(O)cc1)NC(=O)[C@H](CC(=O)O)NC(=O)[C@H](CO)NC(=O)[C@@H](NC(=O)[C@H](Cc1ccccc1)NC(=O)[C@@H](NC(=O)CNC(=O)[C@H](Cc1c[nH]cn1)NC(=O)[C@H](CO)NC(=O)CCc1c[nH]cn1)[C@@H](C)O)[C@@H](C)O)C(C)C)C(=O)N[C@@H](Cc1c[nH]c2ccccc12)C(=O)N[C@@H](CC(C)C)C(=O)N[C@@H](CC(C)C)C(=O)N[C@@H](CO)C(=O)N[C@H](C(=O)O)[C@@H](C)O)C(=O)O)C(=O)O)C(=O)O)C(=O)O [Example 9, N^ϵ24-[(4S)-4-[[(4S)-4-[[(4S)-4-[[(4S)-4-acetamido-4-carboxybutanoyl]amino]-4-carboxybutanoyl]amino]-4-carboxybutanoyl]amino]-4-carboxybutanoyl]-[Imp1, His3, Leu16, Lys24, Leu27, Ser28]-Glucagon] (Desaminohistidyl-SHGTFTSDYSKYLDLRRAQDFVK([γGlu-γGlu-γGlu-γGlu-Ac])WLLST-OH)	0.5	100	–
CC(=O)N[C@@H](CCC(=O)N[C@@H](CCC(=O)N[C@@H](CCC(=O)N[C@@H](CCC(=O)NCCCC[C@H](NC(=O)[C@@H](NC(=O)[C@H](Cc1ccccc1)NC(=O)[C@H](CC(=O)O)NC(=O)[C@H](CCC(N)=O)NC(=O)[C@H](C)NC(=O)[C@H](CCCNC(=N)N)NC(=O)[C@H](CCCNC(=N)N)NC(=O)[C@H](C)NC(=O)[C@H](CC(=O)O)NC(=O)[C@H](CC(C)C)NC(=O)[C@H](Cc1ccc(O)cc1)NC(=O)[C@H](CCCCN)NC(=O)[C@H](CO)NC(=O)[C@H](Cc1ccc(O)cc1)NC(=O)[C@H](CC(=O)O)NC(=O)[C@H](CO)NC(=O)[C@@H](NC(=O)[C@H](Cc1ccccc1)NC(=O)[C@@H](NC(=O)CNC(=O)[C@H](Cc1c[nH]cn1)NC(=O)[C@H](CO)NC(=O)CCc1c[nH]cn1)[C@@H](C)O)[C@@H](C)O)C(C)C)C(=O)N[C@@H](Cc1c[nH]c2ccccc12)C(=O)N[C@@H](CC(C)C)C(=O)N[C@@H](CC(C)C)C(=O)N[C@@H](CO)C(=O)N[C@H](C(=O)O)[C@@H](C)O)C(=O)O)C(=O)O)C(=O)O)C(=O)O [Example 20, N^ϵ24-[(4S)-4-[[(4S)-4-[[(4S)-4-[[(4S)-4-acetamido-4-carboxybutanoyl]amino]-4-carboxybutanoyl]amino]-4-carboxybutanoyl]amino]-4-carboxybutanoyl]-[Imp1, His3, Ala16, Lys24, Leu27, Ser28]-Glucagon] (Desaminohistidyl-SHGTFTSDYSKYLDARRAQDFVK([γGlu-γGlu-γGlu-γGlu-Ac])WLLST-OH)	–	105	0.004
